Data from patent publication US10202361B2, “Pyridazinones as herbicides” (E I DU PONT DE NEMOURS AND COMPANY, priority 2014, dated 2019).

Legend:
Type in all cases: in vivo
[1] = tested on: pigweed (Amaranthus retroflexus); experiment: Test A pre-/postemergence greenhouse herbicide test; conditions: 0 to 100 scale (0 no effect, 100 complete control), approx. 10 d
Description: (§1) Seeds of plant species selected from barnyardgrass (Echinochloa crus-galli), crabgrass, Large (large crabgrass, Digitaria sanguinalis), foxtail, giant (giant foxtail, Setaria faberii), morningglory (Ipomoea spp.), pigweed (Amaranthus retroflexus), velvetleaf (Abutilon theophrasti), wheat (Triticum aestivum), and corn (Zea mays) were planted into a blend of loam soil and sand and treated preemergence with a directed soil spray using test chemicals formulated in a non-phytotoxic solvent mixture which included a surfactant. At the same time these species were also treated with postemergence applications of test chemicals formulated in the same manner.
(§2) Plants ranged in height from 2 to 10 cm and were in the one- to two-leaf stage for the postemergence treatment. Treated plants and untreated controls were maintained in a greenhouse for approximately 10 d, after which time all treated plants were compared to untreated controls and visually evaluated for injury. Plant response ratings, summarized in Table A, are based on a 0 to 100 scale where 0 is no effect and 100 is complete control. A dash (-) response means no test result.

corn (Zea mays) = experiment: as above; conditions: 0 to 100 scale (0 no effect, 100 complete control), approx. 10 d
Description: as §1, §2

[2] = tested on: foxtail, giant (giant foxtail, Setaria faberii); experiment: as above; conditions: 0 to 100 scale (0 no effect, 100 complete control), approx. 10 d
Description: as §1, §2

[3] = tested on: morningglory (Ipomoea spp.); experiment: as above; conditions: 0 to 100 scale (0 no effect, 100 complete control), approx. 10 d
Description: as §1, §2

[4] = tested on: wheat (Triticum aestivum); experiment: as above; conditions: 0 to 100 scale (0 no effect, 100 complete control), approx. 10 d
Description: as §1, §2

[5] = tested on: crabgrass, Large (large crabgrass, Digitaria sanguinalis); experiment: as above; conditions: 0 to 100 scale (0 no effect, 100 complete control), approx. 10 d
Description: as §1, §2

[6] = tested on: barnyardgrass (Echinochloa crus-galli); experiment: as above; conditions: 0 to 100 scale (0 no effect, 100 complete control), approx. 10 d
Description: as §1, §2

[7] = tested on: velvetleaf (Abutilon theophrasti); experiment: as above; conditions: 0 to 100 scale (0 no effect, 100 complete control), approx. 10 d
Description: as §1, §2

rice (Oryza sativa) = experiment: Test B flooded paddy test; conditions: Flood, 125 g ai/ha; scale of 0 to 100, 0 is no effect, 100 is complete control; 13 to 15 d
Method: (§3) Plant species in the flooded paddy test selected from rice (Oryza sativa), small-flower sedge, umbrella (small-flower umbrella sedge, Cyperus difformis), ducksalad (Heteranthera limosa), and barnyardgrass (Echinochloa crus-galli) were grown to the 2-leaf stage for testing. At time of treatment, test pots were flooded to 3 cm above the soil surface, treated by application of test compounds directly to the paddy water, and then maintained at that water depth for the duration of the test. Treated plants and controls were maintained in a greenhouse for 13 to 15 d, after which time all species were compared to controls and visually evaluated. Plant response ratings, summarized in Table B, are based on a scale of 0 to 100 where 0 is no effect and 100 is complete control. A dash (-) response means no test result.

[8] = tested on: sedge, umbrella (small-flower umbrella sedge, Cyperus difformis); experiment: Test B flooded paddy test; conditions: Flood, 125 g ai/ha; scale of 0 to 100, 0 is no effect, 100 is complete control; 13 to 15 d
Method: as §3

[9] = tested on: ducksalad (Heteranthera limosa); experiment: Test B flooded paddy test; conditions: Flood, 125 g ai/ha; scale of 0 to 100, 0 is no effect, 100 is complete control; 13 to 15 d
Method: as §3

[10] = tested on: barnyardgrass (Echinochloa crus-galli); experiment: Test B flooded paddy test; conditions: Flood, 125 g ai/ha; scale of 0 to 100, 0 is no effect, 100 is complete control; 13 to 15 d
Method: as §3

Cc1cc(=O)n(-c2cccc(C(F)(F)F)c2)nc1Oc1ccnc(C(F)(F)F)c1 [Compound 4]
Plant response rating, Pigweed ([1]; Postemergence, 125 g ai/ha): 100
Plant response rating, Pigweed ([1]; Postemergence, 500 g ai/ha): 100
Plant response rating, Pigweed ([1]; Preemergence, 125 g ai/ha): 100
Plant response rating, Pigweed ([1]; Preemergence, 500 g ai/ha): 100
Plant response rating, Corn (corn (Zea mays); Postemergence, 125 g ai/ha): 10
Plant response rating, Corn (corn (Zea mays); Postemergence, 500 g ai/ha): 30
Plant response rating, Corn (corn (Zea mays); Preemergence, 125 g ai/ha): 0
Plant response rating, Corn (corn (Zea mays); Preemergence, 500 g ai/ha): 10
Plant response rating, Foxtail, Giant ([2]; Postemergence, 125 g ai/ha): 30
Plant response rating, Foxtail, Giant ([2]; Postemergence, 500 g ai/ha): 70
Plant response rating, Foxtail, Giant ([2]; Preemergence, 125 g ai/ha): 70
Plant response rating, Foxtail, Giant ([2]; Preemergence, 500 g ai/ha): 100
Plant response rating, Morningglory ([3]; Postemergence, 125 g ai/ha): 40
Plant response rating, Morningglory ([3]; Postemergence, 500 g ai/ha): 70
Plant response rating, Morningglory ([3]; Preemergence, 125 g ai/ha): 20
Plant response rating, Morningglory ([3]; Preemergence, 500 g ai/ha): 40
Plant response rating, Wheat ([4]; Postemergence, 125 g ai/ha): 10
Plant response rating, Wheat ([4]; Postemergence, 500 g ai/ha): 20
Plant response rating, Wheat ([4]; Preemergence, 125 g ai/ha): 0
Plant response rating, Wheat ([4]; Preemergence, 500 g ai/ha): 10
Plant response rating, Crabgrass, Large ([5]; Postemergence, 125 g ai/ha): 30
Plant response rating, Crabgrass, Large ([5]; Postemergence, 500 g ai/ha): 60
Plant response rating, Crabgrass, Large ([5]; Preemergence, 125 g ai/ha): 90
Plant response rating, Crabgrass, Large ([5]; Preemergence, 500 g ai/ha): 100
Plant response rating, Barnyardgrass ([6]; Postemergence, 125 g ai/ha): 10
Plant response rating, Barnyardgrass ([6]; Postemergence, 500 g ai/ha): 20
Plant response rating, Barnyardgrass ([6]; Preemergence, 125 g ai/ha): 10
Plant response rating, Barnyardgrass ([6]; Preemergence, 500 g ai/ha): 40
Plant response rating, Velvetleaf ([7]; Postemergence, 125 g ai/ha): 90
Plant response rating, Velvetleaf ([7]; Postemergence, 500 g ai/ha): 100
Plant response rating, Velvetleaf ([7]; Preemergence, 125 g ai/ha): 10
Plant response rating, Velvetleaf ([7]; Preemergence, 500 g ai/ha): 20
Plant response rating, Rice (rice (Oryza sativa)): 40
Plant response rating, Sedge, Umbrella [8]: 70
Plant response rating, Ducksalad [9]: 65
Plant response rating, Barnyardgrass [10]: 20

O=c1c2c(c(Oc3ccnc(C(F)(F)F)c3)nn1-c1ccc(Cl)cc1)CCCC2 [Compound 7]
Plant response rating, Pigweed ([1]; Postemergence, 125 g ai/ha): 90
Plant response rating, Pigweed ([1]; Postemergence, 500 g ai/ha): 100
Plant response rating, Pigweed ([1]; Preemergence, 125 g ai/ha): 20
Plant response rating, Pigweed ([1]; Preemergence, 500 g ai/ha): 50
Plant response rating, Corn (corn (Zea mays); Postemergence, 125 g ai/ha): 10
Plant response rating, Corn (corn (Zea mays); Postemergence, 500 g ai/ha): 10
Plant response rating, Corn (corn (Zea mays); Preemergence, 125 g ai/ha): 0
Plant response rating, Corn (corn (Zea mays); Preemergence, 500 g ai/ha): 0
Plant response rating, Foxtail, Giant ([2]; Postemergence, 125 g ai/ha): 10
Plant response rating, Foxtail, Giant ([2]; Postemergence, 500 g ai/ha): 10
Plant response rating, Foxtail, Giant ([2]; Preemergence, 125 g ai/ha): 0
Plant response rating, Foxtail, Giant ([2]; Preemergence, 500 g ai/ha): 30
Plant response rating, Morningglory ([3]; Postemergence, 125 g ai/ha): 10
Plant response rating, Morningglory ([3]; Postemergence, 500 g ai/ha): 20
Plant response rating, Morningglory ([3]; Preemergence, 125 g ai/ha): 0
Plant response rating, Morningglory ([3]; Preemergence, 500 g ai/ha): 0
Plant response rating, Wheat ([4]; Postemergence, 125 g ai/ha): 0
Plant response rating, Wheat ([4]; Postemergence, 500 g ai/ha): 10
Plant response rating, Wheat ([4]; Preemergence, 125 g ai/ha): 0
Plant response rating, Wheat ([4]; Preemergence, 500 g ai/ha): 0
Plant response rating, Crabgrass, Large ([5]; Postemergence, 125 g ai/ha): 10
Plant response rating, Crabgrass, Large ([5]; Postemergence, 500 g ai/ha): 10
Plant response rating, Crabgrass, Large ([5]; Preemergence, 125 g ai/ha): 0
Plant response rating, Crabgrass, Large ([5]; Preemergence, 500 g ai/ha): 40
Plant response rating, Barnyardgrass ([6]; Postemergence, 125 g ai/ha): 0
Plant response rating, Barnyardgrass ([6]; Postemergence, 500 g ai/ha): 10
Plant response rating, Barnyardgrass ([6]; Preemergence, 125 g ai/ha): 0
Plant response rating, Barnyardgrass ([6]; Preemergence, 500 g ai/ha): 40
Plant response rating, Velvetleaf ([7]; Postemergence, 125 g ai/ha): 20
Plant response rating, Velvetleaf ([7]; Postemergence, 500 g ai/ha): 40
Plant response rating, Velvetleaf ([7]; Preemergence, 125 g ai/ha): 0
Plant response rating, Velvetleaf ([7]; Preemergence, 500 g ai/ha): 0
Plant response rating, Rice (rice (Oryza sativa)): 0
Plant response rating, Sedge, Umbrella [8]: 0
Plant response rating, Ducksalad [9]: 0
Plant response rating, Barnyardgrass [10]: 0
